Measurements as given in patent US8133905B2, “Biphenyl compounds useful as muscarinic receptor antagonists” (Theravance, Inc., priority 2005, dated 2012).
Counter-ions that a name gives are not always drawn.

Assay: Dynamic moisture sorption (DMS) assessment
Assay type: physicochemical
Conditions: exposed to up to 90% RH
Method: A dynamic moisture sorption (DMS) assessment (also known as a moisture sorption-desorption profile) was performed for samples of the crystalline diacetate salt using a VTI atmospheric microbalance, SGA-100 system (VTI Corp., Hialeah, Fla. 33016). A sample size of approximately 10 mg was used and the humidity was set at the ambient value at the start of the analysis. A typical DMS analysis consisted of three scans: ambient to 2% relative humidity (RH), 2% RH to 90% RH, 90% RH to 5% RH at a scan rate of 5% RH/step. The mass was measured every two minutes and the RH was changed to the next value (+/−5% RH) when the mass of the sample was stable to within 0.01% for 5 consecutive points.

SMILES	weight gain in DMS trace (reversible sorption/desorption profile)
CN(CCN1CCC(OC(=O)Nc2ccccc2-c2ccccc2)CC1)C(=O)c1cccc(C(=O)NCCNCc2ccc(O)cc2)c1 [crystalline monooxalate salt, Biphenyl-2-ylcarbamic Acid 1-[2-({3-[2-(4-Hydroxybenzylamino)ethylcarbamoyl]benzoyl}methylamino)ethyl]piperidin-4-yl Ester]	less than 14%
CN(CCN1CCC(OC(=O)Nc2ccccc2-c2ccccc2)CC1)C(=O)c1cccc(C(=O)NCCNCc2ccc(O)cc2)c1 [crystalline diacetate salt, biphenyl-2-ylcarbamic acid 1-[2-({3-[2-(4-hydroxybenzylamino)ethylcarbamoyl]benzoyl}methylamino)ethyl]piperidin-4-yl ester]	less than 18%
CN(CCN1CCC(OC(=O)Nc2ccccc2-c2ccccc2)CC1)C(=O)c1cccc(C(=O)NCCNCc2ccc(O)cc2)c1 [crystalline dipropionate salt, Biphenyl-2-ylcarbamic Acid 1-[2-({3-[2-(4-Hydroxybenzylamino)ethylcarbamoyl]benzoyl}methylamino)ethyl]piperidin-4-yl Ester]	less than 11%
